Data on eleven molecules can be found in US20260151372A1, “AZOTOMYCIN PRODRUGS WITH PREFERENTIAL TUMOR DELIVERY” (The Johns Hopkins University, priority 2022, published 2026).

What all share (format): in vitro ADME
Data set [1] in a line: Metabolic stability in CES1-KO mouse liver homogenate. The settings on record: tissue homogenate, 10 μM, 37° C. Here is the method:
(§1) In vitro stability studies were done using CES1KO mouse plasma, human plasma, CES1-KO mouse liver, and human liver microsomes as previously described. For tissue homogenate stability studies, washed tissue was diluted 10-fold in 0.1 M potassium phosphate buffer and homogenized using probe sonication. Crude homogenate was then aliquoted to 1 mL, and spiked with 10 mM stock of the analyte in DMSO to achieve a 10 μM final concentration. The plasma stability of the prodrugs was determined by spiking the analyte in 1 mL of plasma. The plasma and tissues were incubated in an orbital shaker at 37° C. Stability in human liver microsomes was assessed at a final prodrug concentration of 1 μM with 0.2 mg/mL protein for microsomes. All the stability studies were conducted at predetermined times (0 and 60 min), where 50 μL aliquots of the mixture in triplicate were removed and the reaction was quenched by addition of 5 times the volume of ice-cold methanol spiked with the internal standard (losartan: 0.5 μM). The samples were vortex-mixed for 30 s and centrifuged at 10,000 g for 10 min at 4° C. An amount of 50 μL of the supernatant was diluted with 50 μL of water and transferred to a 250 μL polypropylene vial sealed with a Teflon cap. Prodrug disappearance was monitored over time using liquid chromatography and mass spectrometry (LC-MS).
(§2) Analyses were performed on a Dionex ultra high-performance LC system coupled with Q Exactive Focus orbitrap mass spectrometer (Thermo Fisher Scientific Inc., Waltham MA). Separation was achieved using Agilent Eclipse Plus column (100×2.1 mm i.d., maintained at 35° C.) packed with a 1.8 μm C18 stationary phase. The mobile phase consisted of 0.1% formic acid in water and 0.1% formic acid in acetonitrile, […] were operated at a flow rate of 0.3 mL/min for 7 min using gradient elution. The mass spectrometer controlled by Xcalibur software 4.0.27.13 (Thermo Scientific) was operated with a HESI ion source in positive ionization mode. Metabolites were identified in the full-scan mode (from m/z 50 to 1600) by comparing […] samples

Data set [2] in a line: Plasma stability in CES1KO mouse plasma. The note with it: 37° C., 60 min. Here is the method:
as §1, §2

Data set [3] in a line: Plasma stability in human plasma. The settings on record: 37° C. Here is the method:
as §1, §2

Data set [4] in a line: Metabolic stability in human liver microsomes. The note with it: 1 μM prodrug, 0.2 mg/mL protein. The protocol:
as §1, §2

A value given as a limit tells only on which side of the number the result lay.

Turning to `CC(C)C[C@H](N)C(=O)N[C@@H](CCC(=O)N[C@@H](CCC(=O)C=[N+]=[N-])C(=O)N[C@@H](CCC(=O)C=[N+]=[N-])C(=O)[O-])C(=O)[O-].[Na+].[Na+]` [Prodrug P16, Sodium (S)-2-((S)-2-((S)-4-((S)-2-amino-4-methylpentanamido)-4-carboxylatobutanamido)-6-diazo-5-oxohexanamido)-6-diazo-5-oxohexanoate], the “Liver Stability (% Remaining at 60 min) CES1^−/− Mouse Liver” value in data set [1] came to 4.50 ± 1.58%. Moreover, in data set [2], the “Plasma Stability (% Remaining at 60 min) CES1^−/− Mouse Plasma” value is on record as 4.17 ± 0.58%. In data set [3], the “Plasma Stability (% Remaining at 60 min) Human Plasma” value came to 87.4 ± 1.61%. The “Liver Stability (% Remaining at 60 min) Human Liver Microsomes” value in data set [4] stood at 91.0 ± 1.01%.

Turning to `CC(C)OC(=O)[C@H](CCC(=O)C=[N+]=[N-])NC(=O)[C@H](CCC(=O)C=[N+]=[N-])NC(=O)CC[C@H](N)C(=O)OC(C)C` [Prodrug P9, Isopropyl (S)-2-((S)-2-((S)-4-amino-5-isopropoxy-5-oxopentanamido)-6-diazo-5-oxohexanamido)-6-diazo-5-oxohexanoate], the “Liver Stability (% Remaining at 60 min) CES1^−/− Mouse Liver” value in data set [1] worked out at 0.320 ± 0.026%. Further, the “Plasma Stability (% Remaining at 60 min) CES1^−/− Mouse Plasma” value in data set [2] turned out to be 84.3 ± 10.5%. Further, the “Plasma Stability (% Remaining at 60 min) Human Plasma” value in data set [3] came to 85.9 ± 3.63%. The “Liver Stability (% Remaining at 60 min) Human Liver Microsomes” value in data set [4] is reported as more than 100%.

For the molecule `[N-]=[N+]=CC(=O)CC[C@H](NC(=O)[C@H](CCC(=O)C=[N+]=[N-])NC(=O)CC[C@H](N)C(N)=O)C(N)=O` [Prodrug P5, (S)-4-Amino-N1-((S)-1-(((S)-1-amino-6-diazo-1,5-dioxohexan-2-yl)amino)-6-diazo-1,5-dioxohexan-2-yl)pentanediamide], the “Liver Stability (% Remaining at 60 min) CES1^−/− Mouse Liver” value in data set [1] is 4.33 ± 0.882%. Moreover, the “Plasma Stability (% Remaining at 60 min) CES1^−/− Mouse Plasma” value in data set [2] amounted to 87.7 ± 8.51%. Also, in data set [3], the “Plasma Stability (% Remaining at 60 min) Human Plasma” value was found to be 97.3 ± 2.85%. Besides, the “Liver Stability (% Remaining at 60 min) Human Liver Microsomes” value in data set [4] was 95.4 ± 0.595%.

For the molecule `CC(=O)N[C@@H](CCC(=O)N[C@@H](CCC(=O)C=[N+]=[N-])C(=O)N[C@@H](CCC(=O)C=[N+]=[N-])C(N)=O)C(N)=O` [Prodrug P6, (S)-4-Acetamido-N1-((S)-1-(((S)-1-amino-6-diazo-1,5-dioxohexan-2-yl)amino)-6-diazo-1,5-dioxohexan-2-yl)pentanediamide], in data set [1], the “Liver Stability (% Remaining at 60 min) CES1^−/− Mouse Liver” value was 85.0 ± 5.86%. Moreover, the “Plasma Stability (% Remaining at 60 min) CES1^−/− Mouse Plasma” value in data set [2] worked out at 99.0 ± 3.51%. For the same molecule, the “Plasma Stability (% Remaining at 60 min) Human Plasma” value in data set [3] is on record as 105 ± 1.76%. Besides, the “Liver Stability (% Remaining at 60 min) Human Liver Microsomes” value in data set [4] was found to be 98.5 ± 0.676%.

With `CN(C)CC(=O)N[C@@H](CCC(=O)N[C@@H](CCC(=O)C=[N+]=[N-])C(=O)N[C@@H](CCC(=O)C=[N+]=[N-])C(N)=O)C(N)=O` [Prodrug P7, (S)—N1-((S)-1-(((S)-1-Amino-6-diazo-1,5-dioxohexan-2-yl)amino)-6-diazo-1,5-dioxohexan-2-yl)-4-(2-(dimethylamino)acetamido)pentanediamide], the “Liver Stability (% Remaining at 60 min) CES1^−/− Mouse Liver” value in data set [1] turned out to be 109 ± 10.0%. Also, the “Plasma Stability (% Remaining at 60 min) CES1^−/− Mouse Plasma” value in data set [2] came to 98.0 ± 12.5%. The “Plasma Stability (% Remaining at 60 min) Human Plasma” value in data set [3] turned out to be 98.7 ± 2.67%. The “Liver Stability (% Remaining at 60 min) Human Liver Microsomes” value in data set [4] is 95.3 ± 0.168%.

Turning to `[N-]=[N+]=CC(=O)CC[C@H](NC(=O)[C@H](CCC(=O)C=[N+]=[N-])NC(=O)CC[C@H](NC(=O)CN)C(=O)[O-])C(=O)[O-].[Na+].[Na+]` [Prodrug P10, Sodium (S)-2-((S)-2-((S)-4-(2-aminoacetamido)-4-carboxylatobutanamido)-6-diazo-5-oxohexanamido)-6-diazo-5-oxohexanoate], the “Liver Stability (% Remaining at 60 min) CES1^−/− Mouse Liver” value in data set [1] worked out at 90.4 ± 2.76%. Besides, the “Plasma Stability (% Remaining at 60 min) CES1^−/− Mouse Plasma” value in data set [2] amounted to 104 ± 3.67%. In addition, the “Plasma Stability (% Remaining at 60 min) Human Plasma” value in data set [3] stood at 90.5 ± 6.35%. In addition, the “Liver Stability (% Remaining at 60 min) Human Liver Microsomes” value in data set [4] is reported as 90.4 ± 4.10%.

Take `CC(=O)N[C@@H](CCC(=O)N[C@@H](CCC(=O)C=[N+]=[N-])C(=O)N[C@@H](CCC(=O)C=[N+]=[N-])C(=O)OC(C)(C)C)C(=O)OC(C)(C)C` [Prodrug P2]: in data set [1], the “Liver Stability (% Remaining at 60 min) CES1^−/− Mouse Liver” value is recorded as 100 ± 1.67%. For the same molecule, the “Plasma Stability (% Remaining at 60 min) CES1^−/− Mouse Plasma” value in data set [2] is on record as 104 ± 2.31%. Besides, the “Plasma Stability (% Remaining at 60 min) Human Plasma” value in data set [3] was 110 ± 4.70%. Moreover, the “Liver Stability (% Remaining at 60 min) Human Liver Microsomes” value in data set [4] is 85.3 ± 7.88%.

With `[N-]=[N+]=CC(=O)CC[C@H](NC(=O)[C@H](CCC(=O)C=[N+]=[N-])NC(=O)CC[C@H](N)C(=O)O)C(=O)O` [Azotomycin], the “Liver Stability (% Remaining at 60 min) CES1^−/− Mouse Liver” value in data set [1] was found to be 89.7 ± 0.88%. Besides, the “Plasma Stability (% Remaining at 60 min) CES1^−/− Mouse Plasma” value in data set [2] is 105 ± 7.64%. Also, in data set [3], the “Plasma Stability (% Remaining at 60 min) Human Plasma” value amounted to 74.3 ± 1.20%. In addition, the “Liver Stability (% Remaining at 60 min) Human Liver Microsomes” value in data set [4] was 23.7 ± 0.333%.

As for `CCOC(=O)[C@H](CCC(=O)N[C@@H](CCC(=O)C=[N+]=[N-])C(=O)N[C@@H](CCC(=O)C=[N+]=[N-])C(=O)[O-])NC(=O)CN(C)C.[Na+]` [Prodrug P11, Sodium (6S,11S,14S)-11,14-bis(4-diazo-3-oxobutyl)-6-(ethoxycarbonyl)-2-methyl-4,9,12-trioxo-2,5,10,13-tetraazapentadecan-15-oate], the “Liver Stability (% Remaining at 60 min) CES1^−/− Mouse Liver” value in data set [1] is 96.3 ± 1.80%. For the same molecule, in data set [2], the “Plasma Stability (% Remaining at 60 min) CES1^−/− Mouse Plasma” value was found to be 91.8 ± 4.16%. Further, the “Plasma Stability (% Remaining at 60 min) Human Plasma” value in data set [3] came to 83.6 ± 1.76%. Further, in data set [4], the “Liver Stability (% Remaining at 60 min) Human Liver Microsomes” value was determined as 103 ± 4.97%.

Take `CC(=O)NCCCC[C@H](NC(=O)C12CC3CC(CC(C3)C1)C2)C(=O)N[C@@H](CCC(=O)N[C@@H](CCC(=O)C=[N+]=[N-])C(=O)N[C@@H](CCC(=O)C=[N+]=[N-])C(=O)OC(C)C)C(=O)OC(C)C` [Prodrug P19, Isopropyl (2S,5S,10S,13S)-13-((3S,5S,7S)-adamantane-1-carboxamido)-2,5-bis(4-diazo-3-oxobutyl)-10-(isopropoxycarbonyl)-4,7,12,19-tetraoxo-3,6,11,18-tetraazaicosanoate]: the “Liver Stability (% Remaining at 60 min) CES1^−/− Mouse Liver” value in data set [1] came to 0.502 ± 0.103%. Besides, the “Plasma Stability (% Remaining at 60 min) CES1^−/− Mouse Plasma” value in data set [2] is given as 85.1 ± 0.64%. For the same molecule, the “Plasma Stability (% Remaining at 60 min) Human Plasma” value in data set [3] turned out to be 97.0 ± 4.11%. In addition, the “Liver Stability (% Remaining at 60 min) Human Liver Microsomes” value in data set [4] is reported as 74.1 ± 2.10%.

Take `CCOC(=O)[C@H](CCC(=O)C=[N+]=[N-])NC(=O)[C@H](CCC(=O)C=[N+]=[N-])NC(=O)CC[C@H](NC(=O)CN(C)C)C(=O)O` [Prodrug P13, N^5—((S)-6-diazo-1-(((S)-6-diazo-1-ethoxy-1,5-dioxohexan-2-yl)amino)-1,5-dioxohexan-2-yl)-N^2-(dimethylglycyl)-L-glutamine]: the “Liver Stability (% Remaining at 60 min) CES1^−/− Mouse Liver” value in data set [1] amounted to 1.55 ± 0.77%. Also, the “Plasma Stability (% Remaining at 60 min) CES1^−/− Mouse Plasma” value in data set [2] came to 107 ± 6.6%. Further, in data set [3], the “Plasma Stability (% Remaining at 60 min) Human Plasma” value came out at 86.6 ± 2.69%. The “Liver Stability (% Remaining at 60 min) Human Liver Microsomes” value in data set [4] amounted to 109 ± 2.22%.
